Laboratory results taken from US6262031A, “Method for treating pediculosis capitisinfestation” (Merck & Co., Inc., priority 2000, dated 2001).

Legend:
head lice [1] = details: single oral dose 100-200 ug/kg; cited from earlier work
head lice [2] = assay: Example 2: comparison of head lice treatment using orally administered ivermectin at cumulative doses of 200, 400 and 600 ug/kg; type: in vivo, human
Method: On Days 1, 4, 8 and 15, patients had their scalp inspected for viable nits and their hair shampooed (prior to dosing, if the day for scalp inspection was also a "dosing" day). The rinse water was filtered through a towel that enabled the number of lice (for each stage of nymphs and/or adult lice) to be recorded. An independent qualitative assessment was performed on a subset of towels. All patients were also seen on Days 5 and 9 for the assessment of clinical adverse experiences.
The primary analysis was based on treatment outcome (success or failure) on Day 15. "treatment success" is defined to mean that no live lice were observed on Day 15. "Reinfestation" corresponds to the condition where the patient, previously free of lice (including any stage nymphs and/or adult lice) on Day 8, is infested thereafter with adult lice. "Reinfestation" also corresponds to the condition where the patient, previously free of lice and nits, is infested thereafter with adult lice and first and second stage nymphs. The percent of treatment success was calculated.
(§1) Three groups of patients were treated.

head lice [3] = assay: Example 8: comparison of head lice treatment using orally administered ivermectin at cumulative doses of 800, 1200 and 600 ug/kg and shampoo cleaning; type: in vivo, human; details: for Treatment success (%) Day 15: washing shampoo the day after each dose
Method: On Days 1, 4 and 8, patients had their scalp inspected for nits and lice. Their hair was shampooed on Days 2, 5, 9, and 15. The rinse water was filtered through a towel that enabled the number of lice (for each stage of nymph and/or adult lice) to be recorded. An independent qualitative assessment was performed on those towels with live lice at Day 15. Clinical adverse experiences were collected at all visits.
The primary analysis was based on treatment outcome (success or failure) on Day 15. "Treatment success" is defined to mean that no live lice were observed on Day 15, or, if lice were present on Day 15, that they were the result of reinfestation. "Reinfestation" corresponds to the condition where the patient, previously free of lice (including any stage nymphs and/or adult lice) on Day 9, is infested thereafter with adult lice. Patients who were reinfested were counted as successes. The percent of treatment success was calculated.
as §1

head lice [4] = details: single topical application; cited from earlier work
Onchocerca volvulus [5] = details: single oral dose, cited from earlier work
[6] = test system: glutamate-gated chloride ion channels; details: invertebrate nerve and muscle cells; cited from earlier work
nematodes = details: cited from earlier work
Pediculosis capitis = details: 200 ug/kg single oral dose, 26 patients; cited from earlier work
[7] = ivermectin; cited from earlier work
[8] = test system: adult worm of any species of Filarioidea; details: causing lymphatic filariasis, tropical pulmonary eosinophilia syndrome, lymphadenitis or lymphangitis; cited from earlier work
Onchocerca volvulus [9] = details: cited from earlier work
[10] = Example 7: ivermectin plasma levels in fasted and fed state; type: in vivo, human; details: 30 mg oral; high fat meal vs fasting, three weeks apart
[11] = cited from earlier work
[12] = test system: mammalian ligand-gated chloride channels; details: cited from earlier work
[13] = test system: Strongyloides stercoralis; details: cited from earlier work

In the case of “mixture containing at least 90% 5-O-demethyl-22,23-dihydroavermectin A1a and less than 10% 5-O-demethyl-25-de(1-methylpropyl)-22,23-dihyro-25-(1-methylethyl) avermectin A1a [ivermectin]”, the “effect on head lice infestation” value (head lice [1]) is listed as “significant, but not absolute, effect”, the “success rate, comparison of groups” value (head lice [2]; 200 ug/kg doses on Days 1, 4 and 8) is listed as “highest success rate” and the “Treatment success (%) Day 15” value (head lice [2]; Group 1: oral 200 ug/kg on Day 1, 29 patients) is listed as 52%. For the same substance, the “Treatment success (%) Day 15” value (head lice [2]; Group 2: oral 200 ug/kg on Days 1 and 8, 28 patients) was 68%, the “Treatment success (%) Day 15” value (head lice [2]; Group 3: oral 200 ug/kg on Days 1, 4 and 8, 31 patients) was 81% and the “Treatment success (%) Day 15” value (head lice [3]; Group 1: oral 400 ug/kg on Days 1 and 8, 57 patients) was 98.2%. For the same substance, the “Treatment success (%) Day 15” value (head lice [3]; Group 2: oral 400 ug/kg on Days 1, 4 and 8, 60 patients) was 100%, the “Treatment success (%) Day 15” value (head lice [3]; Group 3: oral 200 ug/kg on Days 1, 4 and 8, 57 patients) was 100% and the “success rates, comparison of groups” value (head lice [3]; all three study groups, Day 15) was “comparable success rates”. The “curative effect on head lice” value (head lice [4]) was “absolute curative effect”, the dermal microfilarial density (Onchocerca volvulus [5]; after one month) was “near zero” and the “maintenance of low microfilarial level” value (Onchocerca volvulus [5]) was “up to 12 months”. For the same substance, the “binding affinity to glutamate-gated chloride ion channels” value [6] was “selectively binds with high affinity”, the “effect of binding on cell membrane and parasite” value [6] was “increase in the permeability of the cell membrane to chloride ions with hyperpolarization of the nerve or muscle cell, resulting in paralysis and death of the parasite” and the “activity against life-cycle stages of nematodes” value (nematodes) was “active against various life-cycle stages of many but not all nematodes”. For the same substance, the “effectiveness against head lice” value (Pediculosis capitis) was “effectiveness of ivermectin 200 mcg/kg single dose against head lice”, the plasma half-life [7] was “about 12 hours” and the “activity against adult worm of any species of Filarioidea” value [8] was “has not been shown to have any activity against adult worm”. For the same substance, the “activity against the adult form” value (Onchocerca volvulus [9]; adult form) was “not against the adult form”, the “activity against tissue microfilariae” value (Onchocerca volvulus [9]; tissue microfilariae) was “active against the tissue microfilariae” and the “increase in bioavailability, fed vs fasted state” value [10] was 2.5 times. The “overall incidences of adverse experiences” value ([11]; amicrofilaremic population, mass treatment programs) was 1%, the laboratory abnormalities ([11]; studies of microfilaremic patients) was “eosinophilia, liver function abnormalities and hematuria” and the “affinity for mammalian ligand-gated chloride channels” value [12] was “low affinity”. The “activity against Strongyloides stercoralis” value [13] was “limited to the intestinal stages”.
